Marks after values point to notes of the source that are not given here.
Experiments:
[1] = system: influenza (H1N1A/PR/8/34); test: microbe, parasite or virus in culture; format: cell-based
[2] = system: influenza (H3N1 Memphis 71); conditions: mouse, in vivo
c-Src enzyme = c-Src enzyme (Homo sapiens, UniProt P12931); test: c-Src enzyme assay (Z'-LYTE FRET); format: biochemical; conditions: ATP 200 μM
p38 MAPKα (MAPK14) = p38 MAPKα (MAPK14) (Homo sapiens, UniProt Q16539); test: p38α enzyme assay (Z'-LYTE FRET, via MAPKAP-K2 activation); format: biochemical; conditions: 2 hr pre-incubation, ATP 10 μM
HCK enzyme = HCK enzyme (Homo sapiens, UniProt P08631); test: HCK enzyme assay (Z'-LYTE FRET); format: biochemical; conditions: 2 hr pre-incubation, ATP 15 μM
MDCK cells = test: MTT assay (MDCK cells); format: cell-based, canine; conditions: final concentration of 10 μg/mL
Method: The cells were then washed with 10% FCS DMEM, and incubated in 10% FCS DMEM containing 0.25 mg/mL MTT for 2 hr. The media were then removed, 200 μL of DMSO added to each well and the plates were shaken lightly for 1 hr prior to reading the absorbance at 550 nm.

[3] = Influenza A virus, MDCK, read-out: IC50 (nM) Influenza-Induced CPE
[4] = Influenza A virus; MDCK cells, H1N1 A/PR/8/34, MOI 0.1; non-linear regression; read-out: IC50 (nM) Influenza-Induced CPE
[5] = MDCK; read-out: IC50 (nM) Influenza-Induced CPE

Sequence of HCK enzyme (P08631 22-526): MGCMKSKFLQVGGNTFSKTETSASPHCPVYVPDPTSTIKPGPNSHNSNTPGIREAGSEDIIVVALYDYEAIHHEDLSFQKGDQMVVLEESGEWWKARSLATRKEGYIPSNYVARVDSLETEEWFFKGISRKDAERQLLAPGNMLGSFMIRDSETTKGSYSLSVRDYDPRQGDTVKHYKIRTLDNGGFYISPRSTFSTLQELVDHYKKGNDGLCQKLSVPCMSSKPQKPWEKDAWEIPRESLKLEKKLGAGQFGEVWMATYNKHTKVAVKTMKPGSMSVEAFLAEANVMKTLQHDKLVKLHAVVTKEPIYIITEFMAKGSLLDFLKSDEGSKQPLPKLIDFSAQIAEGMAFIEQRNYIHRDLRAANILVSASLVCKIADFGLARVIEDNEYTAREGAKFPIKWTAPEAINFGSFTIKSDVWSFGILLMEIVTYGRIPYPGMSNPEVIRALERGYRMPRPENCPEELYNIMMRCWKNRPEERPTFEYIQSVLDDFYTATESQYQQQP
Sequence of c-Src enzyme (P12931 whole entry): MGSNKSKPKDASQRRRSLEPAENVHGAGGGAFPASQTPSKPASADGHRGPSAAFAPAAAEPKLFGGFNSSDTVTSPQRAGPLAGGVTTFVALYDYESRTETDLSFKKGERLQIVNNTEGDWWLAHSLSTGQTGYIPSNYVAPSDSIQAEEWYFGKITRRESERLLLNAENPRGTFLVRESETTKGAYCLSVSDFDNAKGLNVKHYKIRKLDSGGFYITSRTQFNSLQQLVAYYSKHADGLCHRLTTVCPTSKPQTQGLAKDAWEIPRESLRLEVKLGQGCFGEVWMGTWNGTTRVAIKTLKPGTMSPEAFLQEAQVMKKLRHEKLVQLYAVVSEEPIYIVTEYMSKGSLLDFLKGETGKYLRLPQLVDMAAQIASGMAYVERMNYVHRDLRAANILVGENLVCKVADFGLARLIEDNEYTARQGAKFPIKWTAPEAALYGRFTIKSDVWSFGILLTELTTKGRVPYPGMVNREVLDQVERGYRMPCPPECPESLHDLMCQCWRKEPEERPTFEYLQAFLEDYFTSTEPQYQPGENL
Sequence of p38 MAPKα (MAPK14) (Q16539 whole entry): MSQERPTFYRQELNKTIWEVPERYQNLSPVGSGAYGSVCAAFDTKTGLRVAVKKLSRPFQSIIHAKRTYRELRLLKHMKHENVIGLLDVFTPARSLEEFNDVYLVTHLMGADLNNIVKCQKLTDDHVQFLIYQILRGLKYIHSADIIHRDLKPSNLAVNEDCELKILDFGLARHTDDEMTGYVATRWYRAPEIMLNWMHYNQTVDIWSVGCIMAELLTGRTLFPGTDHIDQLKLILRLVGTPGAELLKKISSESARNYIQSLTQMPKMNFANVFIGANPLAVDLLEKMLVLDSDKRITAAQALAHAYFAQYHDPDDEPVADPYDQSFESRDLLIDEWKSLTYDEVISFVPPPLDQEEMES

| Structure (SMILES) | IC50 (c-Src enzyme) | IC50 [1, 4] | IC50 (p38 MAPKα (MAPK14)) | IC50 (HCK enzyme) | further results |
| --- | --- | --- | --- | --- | --- |
| COCC(=O)Nc1cc(COc2ccc(NC(=O)Nc3cc(C(C)(C)C)nn3-c3ccc(C)cc3)c3ccccc23)ccn1 [Example 1, N-(4-((4-(3-(3-tert-Butyl-1-p-tolyl-1H-pyrazol-5-yl)ureido)naphthalen-1-yloxy)methyl)pyridin-2-yl)-2-methoxyacetamide] |  |  |  |  | IC50 [1, 3]: 6 nM; Lung viral load [2]: 8.1 ± 1.9 pfu/g lung tissue (×10^6); decrease in viral load versus vehicle controls [2]: approximately 80% |
| CNC(=O)Nc1cc(COc2ccc(NC(=O)Nc3cc(C(C)(C)C)nn3-c3ccc(C)cc3)c3ccccc23)ccn1 [Example 2, Methyl 4-((4-(3-(3-tert-butyl-1-p-tolyl-1H-pyrazol-5-yl)ureido)naphthalen-1-yloxy)methyl)pyridin-2-ylurea] | 45 nM | 11 nM | 2.8 nM | 17 nM |  |
| COCCNC(=O)CNC(=O)Nc1cc(COc2ccc(NC(=O)Nc3cc(C(C)(C)C)nn3-c3ccc(C)cc3)c3ccccc23)ccn1 [Example 15, 2-(3-(4-((4-(3-(3-tert-Butyl-1-p-tolyl-1H-pyrazol-5-yl)ureido)naphthalen-1-yloxy)methyl)pyridin-2-yl)ureido)-N-(2-methoxyethyl)acetamide] | 28 nM |  |  | 65 nM | MTT assay 4 hr (MDCK cells; 4 hr): −ve (<30% = −ve); MTT assay 24 hr (MDCK cells; 24 hr): −ve (<30% = −ve); IC50 [1, 5]: > 0.2 µg/mL |
| Cc1ccc(-n2nc(C(C)(C)C)cc2NC(=O)Nc2ccc(OCc3ccnc(NC(=O)CCCN(C)C)c3)c3ccccc23)cc1 [Example 16, N-(4-((4-(3-(3-tert-Butyl-1-p-tolyl-1H-pyrazol-5-yl)ureido)naphthalen-1-yloxy)methyl)pyridin-2-yl)-4-(dimethylamino)butanamide] | 28 nM | 166 nM | 10.3 nM | 20 nM |  |
| Cc1ccc(-n2nc(C(C)(C)C)cc2NC(=O)Nc2ccc(OCc3ccnc(NC(=O)CCS(C)(=O)=O)c3)c3ccccc23)cc1 [Example 17, N-(4-((4-(3-(3-tert-Butyl-1-p-tolyl-1H-pyrazol-5-yl)ureido)naphthalen-1-yloxy)methyl)pyridin-2-yl)-3-(methylsulfonyl)propanamide] | 149 nM | 64 nM | 2.7 nM | 60 nM |  |
| Cc1ccc(-n2nc(C(C)(C)C)cc2NC(=O)Nc2ccc(OCc3ccnc(NC(=O)C[S+](C)[O-])c3)c3ccccc23)cc1 (stereo not shown) [Example 20, N-(4-((4-(3-(3-tert-Butyl-1-p-tolyl-1H-pyrazol-5-yl)ureido)naphthalen-1-yloxy)methyl)pyridin-2-yl)-2-(methylsulfinyl)acetamide] | 161 nM |  |  | 176 nM | IC50 [1, 3]: 486 nM |
| Cc1ccc(-n2nc(C(C)(C)C)cc2NC(=O)Nc2ccc(OCc3ccnc(NC(=O)CS(=O)(=O)CCN4CCOCC4)c3)c3ccccc23)cc1 [Example 32, N-(4-((4-(3-(3-tert-Butyl-1-p-tolyl-1H-pyrazol-5-yl)ureido)naphthalen-1-yloxy)methyl)pyridin-2-yl)-2-(2-morpholinoethylsulfonyl)acetamide] | 111 nM |  | 1 nM | 183 nM | IC50 [1, 5]: > 0.04 µg/mL |
| CNC(=O)Nc1cnccc1COc1ccc(NC(=O)Nc2cc(C(C)(C)C)nn2-c2ccc(C)cc2)c2ccccc12 [Example 34, 1-(4-((3-Methylureidopyridin-4-yl)methoxy)naphthalen-1-yl)-3-(3-tert-butyl-1-p-tolyl-1H-pyrazol-5-yl)urea] | > 17300 nM |  |  | 742 nM | IC50 [1, 5]: > 0.2 µg/mL |
| COCCOCC(=O)Nc1cnccc1COc1ccc(NC(=O)Nc2cc(C(C)(C)C)nn2-c2ccc(C)cc2)c2ccccc12 [Example 36, N-(4-((4-(3-(3-tert-Butyl-1-p-tolyl-1H-pyrazol-5-yl)ureido)naphthalen-1-yloxy)methyl)pyridin-3-yl)-2-(2-methoxyethoxy)acetamide] | 9330 nM |  |  | > 1570 nM | IC50 ([1]; MDCK, read-out: IC50 (nM) Influenza-Induced CPE): > 0.2 µg/mL |
| Cc1ccc(-n2nc(C(C)(C)C)cc2NC(=O)Nc2ccc(OCCc3ccnc(NC(N)=O)c3)c3ccccc23)cc1 [Example 40, 4-(2-(4-(3-(3-tert-Butyl-1-p-tolyl-1H-pyrazol-5-yl)ureido)naphthalen-1-yloxy)ethyl)-3-(pyridin-2-yl)urea] | > 17300 nM |  |  | 276 nM | IC50 [1, 3]: 97 nM |
| COCC(=O)Nc1cc(COc2ccc(NC(=O)Nc3cc(C(C)(C)C)nn3-c3ccc(CO)cc3)c3ccccc23)ccn1 [Example 49, N-(4-((4-(3-(3-tert-Butyl-1-(4-(hydroxymethyl)phenyl)-1H-pyrazol-5-yl)ureido)naphthalen-1-yloxy)methyl)pyridin-2-yl)-2-methoxyacetamide] | 155 nM | 32 nM | 5 nM | 24 nM |  |
